Test results taken from PubChem BioAssay (NCI).
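The compound was tested at five concentrations on cells cultured in 96-well plates, with a 48-hour exposure period. TGI is the concentration that stops growth completely.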

Assays:
Assay in all cases: inhibition of tumour cell growth, NCI panel, 48 h
[1] = test system: U251 CNS
[2] = test system: ACHN renal
[3] = test system: SW-620 colon
[4] = test system: A549 NSCLC
[5] = test system: SK-MEL-28 melanoma
[6] = test system: 786-0 renal
[7] = test system: IGROV1 ovarian
[8] = test system: DMS 114 small cell lung
[9] = test system: OVCAR-3 ovarian
[10] = test system: TK-10 renal
[11] = test system: SF-539 CNS
[12] = test system: XF 498 CNS
[13] = test system: UACC-62 melanoma
[14] = test system: UACC-257 melanoma
[15] = test system: M14 melanoma
[16] = test system: HOP-62 NSCLC
[17] = test system: HCT-15 colon
[18] = test system: DLD-1 colon
[19] = test system: SR leukemia
[20] = test system: NCI-H460 lung
[21] = test system: LXFL 529 NSCLC
[22] = test system: HOP-18 NSCLC
[23] = test system: EKVX NSCLC
[24] = test system: OVCAR-5 ovarian
[25] = test system: UO-31 renal
[26] = test system: HCT-116 colon
[27] = test system: SNB-78 CNS
[28] = test system: RXF-631 renal
[29] = test system: SN12C renal
[30] = test system: M19-MEL melanoma
[31] = test system: A498 renal
[32] = test system: SF-295 CNS
[33] = test system: CCRF-CEM leukemia
[34] = test system: SK-OV-3 ovarian
[35] = test system: SNB-75 CNS
[36] = test system: OVCAR-8 ovarian
[37] = test system: RPMI-8226 leukemia
[38] = test system: KM20L2 colon
[39] = test system: HCC-2998 colon
[40] = test system: NCI-H522 lung
[41] = test system: OVCAR-4 ovarian
[42] = test system: MOLT-4 leukemia
[43] = test system: NCI-H23 lung
[44] = test system: DMS 273 small cell lung
[45] = test system: HL-60(TB) leukemia
[46] = test system: SF-268 CNS
[47] = test system: SK-MEL-5 melanoma
[48] = test system: HT29 colon
[49] = test system: CAKI-1 renal
[50] = test system: KM12 colon
[51] = test system: HOP-92 NSCLC
[52] = test system: SNB-19 CNS
[53] = test system: MALME-3M melanoma
[54] = test system: K-562 leukemia
[55] = test system: SK-MEL-2 melanoma
[56] = test system: NCI-H226 lung
[57] = test system: LOX IMVI melanoma
[58] = test system: RXF 393 renal
[59] = test system: COLO 205 colon
[60] = test system: HS 578T breast
[61] = test system: T-47D breast
[62] = test system: DU-145 prostate
[63] = test system: MDA-MB-435
[64] = test system: PC-3 prostate
[65] = test system: MDA-MB-231 breast
[66] = test system: MDA-N
[67] = test system: MCF7 breast
[68] = test system: NCI/ADR-RES ovarian
[69] = test system: BT-549 breast

Measured: TGI

C/C(N=NS(=O)(=O)c1ccccc1)=C1\C=CC=CN1O
> 100 µM: [1] | [2] | [3] | [4] | [5] | [6] | [7] | [8] | [9] | [10] | [11] | [12] | [13] | [14] | [15] | [16] | [17] | [18] | [19] | [20] | [21] | [22] | [23] | [24] | [25] | [26] | [27] | [28] | [29] | [30] | [31] | [32] | [33] | [34] | [35] | [36] | [37] | [38] | [39] | [40] | [41] | [42] | [43] | [44] | [45] | [46] | [47] | [48] | [49] | [50] | [51] | [52]

CS(=O)(=O)OC1CCC2(C#N)CCC1C2=O (stereo not drawn)
44 µM: [19]
44.4 µM: [37]
> 100 µM: [1] | [2] | [4] | [5] | [6] | [7] | [9] | [53] | [10] | [11] | [12] | [13] | [14] | [15] | [54] | [16] | [17] | [18] | [20] | [21] | [22] | [23] | [24] | [25] | [26] | [27] | [28] | [29] | [30] | [55] | [31] | [32] | [33] | [56] | [34] | [57] | [35] | [36] | [58] | [59] | [38] | [39] | [40] | [41] | [42] | [43] | [44] | [45] | [46] | [47] | [48] | [49] | [50] | [52]

BrC1=CCC23CC=C(Br)[C@H]4CC2(COC3)C[C@@H]1O4 (stereo partly drawn)
30.9 µM: [46]
62.1 µM: [5]
93.6 µM: [27]
89 µM: [54]
66.2 µM: [40]
93.5 µM: [58]
41.6 µM: [35]
86 µM: [42]
> 100 µM: [1] | [2] | [3] | [4] | [6] | [7] | [8] | [9] | [53] | [10] | [11] | [12] | [13] | [15] | [16] | [17] | [19] | [20] | [21] | [23] | [26] | [29] | [30] | [55] | [32] | [56] | [57] | [36] | [37] | [59] | [38] | [41] | [43] | [44] | [47] | [50] | [52]
86.2 µM: [24]
82.4 µM: [25]
79.5 µM: [33]
38.1 µM: [45]

COC1=C(N)C(=O)c2nc(C)ccc2C1=O
14.5 µM: [39]
3.27 µM: [2] | [5] | [29]
3.94 µM: [6]
3.53 µM: [8] | [22]
> 87.7 µM: [33]
> 52.9 µM: [42]
3.36 µM: [3]
> 40.8 µM: [37]
> 26.9 µM: [45]
6.21 µM: [21]
> 24 µM: [19]
14.1 µM: [27]
3.57 µM: [31]
3.43 µM: [24]
3.65 µM: [9]
> 22.5 µM: [54]
5.07 µM: [38]
23.3 µM: [7]
16.4 µM: [10]
2.84 µM: [12]
3.99 µM: [26]
0.715 µM: [30]
3.84 µM: [44]
5.69 µM: [1]
3.66 µM: [41]
3.49 µM: [17]
2.33 µM: [56]
2.95 µM: [43]
3.33 µM: [15]
5.31 µM: [18]
3.35 µM: [11]
4 µM: [25]
2.94 µM: [16]
3.28 µM: [55]
3.83 µM: [52]
3.68 µM: [50]
3.2 µM: [13]
6.85 µM: [23]
22.1 µM: [51]
3.23 µM: [59]
4.57 µM: [4]
4.11 µM: [20]
3.74 µM: [35] | [48]
3.09 µM: [47]
2.78 µM: [14]
3.08 µM: [58]
4.17 µM: [46]
22.4 µM: [49]
38.4 µM: [34]
2.49 µM: [57]
3.18 µM: [53] | [32]
12.4 µM: [36]
3.21 µM: [40]

O=C(NCCCCNc1cccccc1=O)OCc1ccccc1
> 100 µM: [1] | [2] | [3] | [4] | [5] | [6] | [7] | [8] | [9] | [53] | [10] | [13] | [14] | [15] | [54] | [16] | [17] | [18] | [20] | [21] | [22] | [23] | [24] | [25] | [26] | [27] | [28] | [29] | [30] | [55] | [31] | [32] | [33] | [56] | [34] | [57] | [35] | [36] | [37] | [59] | [38] | [39] | [40] | [41] | [42] | [43] | [44] | [45] | [46] | [47] | [48] | [49] | [50] | [52]

Cc1cc(CC(=O)NCCO)n(CCO)c(=O)c1
> 100 µM: [1] | [2] | [3] | [4] | [5] | [6] | [7] | [8] | [9] | [53] | [10] | [11] | [12] | [13] | [14] | [15] | [54] | [16] | [18] | [19] | [20] | [21] | [22] | [24] | [25] | [26] | [27] | [28] | [29] | [30] | [32] | [33] | [57] | [35] | [36] | [58] | [59] | [39] | [40] | [41] | [42] | [43] | [44] | [45] | [46] | [47] | [48] | [49] | [50] | [51] | [52]

CN(/N=C/c1cccc2cccnc12)c1ccc([N+](=O)[O-])cc1[N+](=O)[O-]
> 95 µM: [23]
61.6 µM: [27]
34.8 µM: [60]
25.8 µM: [35]
19.2 µM: [12]
58.6 µM: [46]
33 µM: [32]
> 100 µM: [3] | [4] | [5] | [62] | [63] | [64] | [14] | [66] | [54] | [17] | [18] | [20] | [21] | [22] | [28] | [67] | [29] | [30] | [33] | [68] | [57] | [36] | [37] | [59] | [38] | [39] | [42] | [47] | [48] | [50]
43.7 µM: [31]
42.7 µM: [51]
> 82.1 µM: [26]
52.8 µM: [34]
39.8 µM: [9]
> 61.9 µM: [8]
90.1 µM: [25]
70.2 µM: [53]
35.8 µM: [6]
63.1 µM: [13]
> 70.3 µM: [41]
70.8 µM: [7]
40.9 µM: [58]
64.9 µM: [49]
> 55.7 µM: [44]
50.1 µM: [43]
47.4 µM: [55]
85.4 µM: [61]
> 89.6 µM: [24]
40.2 µM: [52]
59.7 µM: [69]
57.2 µM: [40]
59.3 µM: [2]
64.4 µM: [56]
29.1 µM: [1]
> 94.4 µM: [15]
56.8 µM: [65]
22.9 µM: [16]
32.1 µM: [11]
> 68.1 µM: [45]
54 µM: [10]
